Measured values: ChEMBL document CHEMBL1151051, “Structure-based design of novel calcineurin (PP2B) inhibitors” (Bioorg Med Chem Lett, 1997)

Experiments:
[1] = The compound was tested for the inhibition of Protein phosphatase-1 (PP1); details: read-out: Ki app
[2] = Inhibition of Protein phosphatase 2B; parameters: species or system Homo sapiens; details: read-out: Ki app

SMILES | Ki [1] [nM] | Ki [2] [nM]
O=C1OC(=O)[C@@H]2[C@H]1[C@@H]1O[C@H]2C[C@@H]1COC(=O)[C@@H]1C[C@H]1c1ccccc1 | 4000 | 500
O=C(OC[C@H]1C[C@@H]2O[C@H]1[C@H]1C(=O)OC(=O)[C@H]12)c1ccccc1 |  | 11000
O=C(Cc1ccccc1)OC[C@H]1C[C@@H]2O[C@H]1[C@H]1C(=O)OC(=O)[C@H]12 |  | 7400
O=C(CCCC1CCCCC1)OC[C@H]1C[C@@H]2O[C@H]1[C@H]1C(=O)OC(=O)[C@H]12 |  | 1000
O=C(OC[C@H]1C[C@@H]2O[C@H]1[C@H]1C(=O)OC(=O)[C@H]12)c1cccc(Oc2ccccc2)c1 |  | 1800
O=C(CCCc1ccccc1)OC[C@H]1C[C@@H]2O[C@H]1[C@H]1C(=O)OC(=O)[C@H]12 |  | 1200
O=C(OC[C@H]1C[C@@H]2O[C@H]1[C@H]1C(=O)OC(=O)[C@H]12)c1ccc(Oc2ccccc2)cc1 |  | 1400
O=C(CCCCc1ccccc1)OC[C@H]1C[C@@H]2O[C@H]1[C@H]1C(=O)OC(=O)[C@H]12 |  | 2300
O=C(CCc1ccccc1)OC[C@H]1C[C@@H]2O[C@H]1[C@H]1C(=O)OC(=O)[C@H]12 |  | 3700
O=C(Cc1c[nH]c2ccccc12)OC[C@H]1C[C@@H]2O[C@H]1[C@H]1C(=O)OC(=O)[C@H]12 |  | 2000
O=C(O)[C@@H]1[C@H](C(=O)O)[C@H]2CC[C@@H]1O2 [ENDOTHALL] | 4000 | 11500
